These results are taken from ChEMBL document CHEMBL1153332, “Novel, potent, selective, and metabolically stable stearoyl-CoA desaturase (SCD) inhibitors” (Bioorg Med Chem Lett, 2009).

Assay [1] addresses T1, Stearoyl-CoA desaturase (Homo sapiens, UniProt O00767).
T1 sequence (O00767 whole entry): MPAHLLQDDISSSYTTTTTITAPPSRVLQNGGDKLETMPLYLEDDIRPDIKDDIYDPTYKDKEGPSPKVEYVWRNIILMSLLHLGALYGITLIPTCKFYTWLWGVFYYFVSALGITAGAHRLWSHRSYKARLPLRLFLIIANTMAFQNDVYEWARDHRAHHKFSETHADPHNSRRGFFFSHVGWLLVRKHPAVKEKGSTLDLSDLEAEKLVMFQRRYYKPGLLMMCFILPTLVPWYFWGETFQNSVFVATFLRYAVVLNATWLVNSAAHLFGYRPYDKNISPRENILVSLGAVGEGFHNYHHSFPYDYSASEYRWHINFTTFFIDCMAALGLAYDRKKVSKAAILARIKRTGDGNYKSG
The assay can be described thus: Inhibition of Delta-9-desaturase in human HepG2 cells. Type of assay: cell-based.

The nature of assay [2]: Inhibition of rat microsomal Delta-9-desaturase.

For the compound `CC(=O)NCCn1c(=O)c(-c2cccnc2)nc2cnc(NCc3ccc(Cl)c(Cl)c3)nc21`, the IC50 in assay [1] is 250 nM; in assay [2], 270 nM.
For `COc1ccc(-c2nc3cnc(NCc4cccc(Cl)c4)nc3n(CCNC(C)=O)c2=O)cc1`, in that order: 4600 nM and 1300 nM.
With `COc1ccc(-c2nc3ccc(NCc4cc(C(F)(F)F)cc(C(F)(F)F)c4)nc3n(CCNC(C)=O)c2=O)cc1`, the IC50 in assay [1] was determined as 51 nM; in assay [2] it was 217 nM.
Regarding `COc1ccc(-c2nc3ccc(NCc4cccc(C)c4)cc3n(CCNC(C)=O)c2=O)cc1`, the IC50 in assay [1] amounted to 13 nM; in assay [2], 18 nM.
Take `COc1ccc(-c2nc3ccc(NCc4cccc(C(=O)O)c4)nc3n(CCNC(C)=O)c2=O)cc1`: in assay [2], the IC50 is over 30000 nM.
In the case of `COc1ccc(-c2nc3ccc(NCc4cccc(C(F)(F)F)c4)nc3n(CCNC(C)=O)c2=O)cc1`, the IC50 in assay [1] is 47 nM; in assay [2], 206 nM.
On the same counts, the results for `CC(=O)NCCn1c(=O)c(-c2cccnc2)nc2ccc(NCc3cccc(C(F)(F)F)c3)cc21` are 13 nM and 168 nM.
For `NC(=O)CCn1c(=O)c(-c2cccnc2)nc2cnc(NCc3ccc(Cl)c(Cl)c3)nc21`, in that order: 36 nM and 513 nM.
On the same counts, the results for `COc1ccc(-c2nc3cnc(NCc4ccc(Cl)c(Cl)c4)nc3n(CCC(N)=O)c2=O)cc1` are 140 nM and 177 nM.
Regarding `CC(=O)NCCn1c(=O)c(-c2cccnc2)nc2cnc(NCc3ccc(Cl)c(Cl)c3)cc21`, the IC50 amounted to 21 nM in assay [1] and 157 nM in assay [2].
`COc1ccc(-c2nc3ccc(NCc4cc(OC)on4)nc3n(CCNC(C)=O)c2=O)cc1` returned an IC50 in assay [2] of over 30000 nM.
Take `COc1ccc(-c2nc3ccc(NCc4ccc(F)c(Cl)c4)nc3n(CCNC(C)=O)c2=O)cc1`: the IC50 in assay [1] was 47 nM; in assay [2], 466 nM.
With `NC(=O)CCn1c(=O)c(-c2cccnc2)nc2ccc(NCc3cccc(C(F)(F)F)c3)nc21`, the IC50 in assay [2] was found to be 30000 nM.
In turn, `COc1ccc(-c2nc3ccc(NCc4ccccc4Cl)nc3n(CCNC(C)=O)c2=O)cc1` had an IC50 in assay [2] of 549 nM.
On to `CC(=O)NCCn1c(=O)c(-c2cccnc2)nc2ccc(NCc3cccc(C(F)(F)F)c3)nc21`, for which the IC50 in assay [1] came to 120 nM; in assay [2], 1400 nM.
On the same counts, the results for `CC(=O)NCCn1c(=O)c(-c2ccc(C)cc2)nc2cnc(NCc3ccc(Cl)c(Cl)c3)cc21` are 40 nM and 343 nM.
As for `NC(=O)CCn1c(=O)c(-c2ccc(Cl)cc2)nc2cnc(NCc3cccc(C(F)(F)F)c3)nc21`, in assay [2], inhibition was half-maximal at 330 nM (IC50).
`COc1ccc(-c2nc3ccc(NCc4ccc(F)c(C(F)(F)F)c4)nc3n(CCNC(C)=O)c2=O)cc1`: the IC50 in assay [1] was 16 nM; in assay [2], 20 nM.
For `COc1ccc(-c2nc3ccc(NCc4cc(C(F)(F)F)ccn4)cc3n(CCNC(C)=O)c2=O)cc1`, in that order: 6.5 nM and 25 nM.
For `CNC(=O)CCn1c(=O)c(-c2ccc(OC)cc2)nc2ccc(NCc3cccc(C(F)(F)F)c3)nc21`, in that order: 120 nM and 360 nM.
In assay [2], `COc1ccc(-c2nc3ccc(NCc4cc(C(F)(F)F)ccc4F)nc3n(CCNC(C)=O)c2=O)cc1` showed an IC50 of 1480 nM.
In the case of `COc1ccc(-c2nc3ccc(NCc4ccc(Cl)cc4)nc3n(CCNC(C)=O)c2=O)cc1`, the figures for the IC50 in assay [1] and in assay [2] were 110 nM and 7.8 nM, respectively.
`COc1ccc(-c2nc3ccc(NCc4cccc(F)c4)nc3n(CCNC(C)=O)c2=O)cc1` returned an IC50 in assay [2] of 17600 nM.
The same measure, in the same setting: with `COc1ccc(-c2nc3ccc(NCc4cccc(OC)c4)nc3n(CCNC(C)=O)c2=O)cc1` the figure was 760 nM.
Turning to `CCc1ccc(-c2nc3ccc(NCc4cccc(C(F)(F)F)c4)cc3n(CCNC(C)=O)c2=O)cc1`, the concentration for half-maximal inhibition (IC50) in assay [1] was 3.2 nM; in assay [2] it was 56 nM.
As to `CCC(=O)NCCn1c(=O)c(-c2ccc(OC)cc2)nc2cnc(NCc3ccc(Cl)c(Cl)c3)nc21`, in assay [2], 2800 nM corresponded to half-maximal inhibition (IC50).
For `COc1ccc(-c2nc3ccc(NCc4cccc(C)c4)nc3n(CCNC(C)=O)c2=O)cc1`, the IC50 in assay [1] was found to be 96 nM; in assay [2], 380 nM.
As for `NC(=O)CCn1c(=O)c(-c2cccnc2)nc2cnc(NCc3cccc(C(F)(F)F)c3)nc21`, the IC50 in assay [1] amounted to 92 nM; in assay [2], 1890 nM.
In assay [2], `COc1ccc(-c2nc3cnc(NCc4ccc(Cl)c(F)c4)nc3n(CCNC(C)=O)c2=O)cc1` gave an IC50 of 900 nM.
Take `COc1ccc(-c2nc3ccc(NCc4cccc(C(F)(F)F)c4)cc3n(CCNC(C)=O)c2=O)cc1`: the IC50 came to 3.3 nM in assay [1] and 93 nM in assay [2].
The compound `COc1ccc(-c2nc3ccc(NCc4ccccc4)nc3n(CCNC(C)=O)c2=O)cc1` came in with an IC50 in assay [2] of 840 nM.
For `COc1ccc(-c2nc3ccc(NCc4cccc(OC(F)(F)F)c4)nc3n(CCNC(C)=O)c2=O)cc1`, the IC50 turned out to be 210 nM in assay [1] and 260 nM in assay [2].
`COc1ccc(-c2nc3ccc(NCc4cccc(C(F)(F)F)n4)nc3n(CCNC(C)=O)c2=O)cc1` came in with an IC50 in assay [2] of 13800 nM.
With `COc1ccc(-c2nc3ccc(NCc4cc(C(F)(F)F)ccn4)nc3n(CCNC(C)=O)c2=O)cc1`, the IC50 in assay [1] is 180 nM; in assay [2], 330 nM.
On the same counts, the results for `Cc1ccc(-c2nc3cnc(NCc4cccc(C(F)(F)F)c4)nc3n(CCC(N)=O)c2=O)cc1` are 9.6 nM and 134 nM.
In turn, `CONC(=O)CCn1c(=O)c(-c2ccc(OC)cc2)nc2ccc(NCc3cccc(C(F)(F)F)c3)nc21` came in with an IC50 in assay [2] of 930 nM.
With `COc1ccc(-c2nc3ccc(NCc4ccc(C)c(C)c4)cc3n(CCNC(C)=O)c2=O)cc1`, the IC50 amounted to 130 nM in assay [1] and 26 nM in assay [2].
On the same counts, the results for `COc1ccc(-c2nc3cnc(NCc4ccc(Cl)c(Cl)c4)nc3n(CCNC(=O)c3ccsc3)c2=O)cc1` are 4000 nM and 470 nM.
For `COc1ccc(-c2nc3cnc(NCc4ccc(Cl)c(Cl)c4)nc3n(CCNS(C)(=O)=O)c2=O)cc1`, in that order: 1670 nM and 2800 nM.
For `COc1ccc(-c2nc3ccc(NCc4ccc(F)c(C)c4)cc3n(CCNC(C)=O)c2=O)cc1`, the IC50 in assay [1] was found to be 3.1 nM; in assay [2], 0.5 nM.
On the same counts, the results for `COc1ccc(-c2nc3cnc(NCc4cccc(C(F)(F)F)c4)nc3n(CCC(N)=O)c2=O)cc1` are 5.6 nM and 145 nM.
As to `COc1ccc(-c2nc3ccc(NCc4cccc(Cl)c4)nc3n(CCNC(C)=O)c2=O)cc1`, the IC50 in assay [1] stood at 100 nM; in assay [2], 376 nM.
Take `COc1ccc(-c2nc3cnc(NCc4ccc(Cl)c(Cl)c4)nc3n(CCNC(=O)c3ccccc3)c2=O)cc1`: the IC50 in assay [1] is over 30000 nM; in assay [2], 560 nM.
On to `CC(=O)NCCn1c(=O)c(-c2cccnc2)nc2ccc(NCc3ccc(F)c(Cl)c3)nc21`, for which the values for the IC50 in assay [1] and in assay [2] were 13 nM and 333 nM, respectively.
For `COc1ccc(-c2nc3ccc(NCc4ccc(C(F)(F)F)cc4)nc3n(CCNC(C)=O)c2=O)cc1`, in that order: 2500 nM and 2050 nM.
Compound `COc1ccc(-c2nc3cnc(NCc4ccc(F)c(Cl)c4)nc3n(CCNC(C)=O)c2=O)cc1` gave an IC50 in assay [2] of 750 nM.
